What was measured:
D2 receptor = D2 receptor (Homo sapiens, UniProt P14416); test: D2 binding assay by the contractor
dopamine D3 receptor = dopamine D3 receptor (Homo sapiens, UniProt P35462); test: Quinpirole-stimulated mitogenesis assay, D3
[1] = target: human D3 dopamine receptor (Homo sapiens, UniProt P35462); test: Competition binding, [125I]IABN, HEK 293 cells transfected with human D3; settings: for D4/D3: Table 2, ratio of Ki values
Sequence of human D3 dopamine receptor (P35462 whole entry): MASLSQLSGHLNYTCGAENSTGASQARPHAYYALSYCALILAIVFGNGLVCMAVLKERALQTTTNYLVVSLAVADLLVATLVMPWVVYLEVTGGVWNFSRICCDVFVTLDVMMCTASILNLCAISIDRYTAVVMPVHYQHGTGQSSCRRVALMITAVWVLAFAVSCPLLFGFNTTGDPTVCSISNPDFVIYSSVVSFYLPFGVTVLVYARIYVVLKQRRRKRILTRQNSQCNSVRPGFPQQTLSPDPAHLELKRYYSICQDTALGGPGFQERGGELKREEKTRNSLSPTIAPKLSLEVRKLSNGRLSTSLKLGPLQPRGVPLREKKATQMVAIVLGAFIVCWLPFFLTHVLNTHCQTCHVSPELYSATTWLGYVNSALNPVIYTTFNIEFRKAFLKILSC

Sequence of dopamine D3 receptor (P35462 whole entry): as above
Sequence of D2 receptor (P14416 whole entry): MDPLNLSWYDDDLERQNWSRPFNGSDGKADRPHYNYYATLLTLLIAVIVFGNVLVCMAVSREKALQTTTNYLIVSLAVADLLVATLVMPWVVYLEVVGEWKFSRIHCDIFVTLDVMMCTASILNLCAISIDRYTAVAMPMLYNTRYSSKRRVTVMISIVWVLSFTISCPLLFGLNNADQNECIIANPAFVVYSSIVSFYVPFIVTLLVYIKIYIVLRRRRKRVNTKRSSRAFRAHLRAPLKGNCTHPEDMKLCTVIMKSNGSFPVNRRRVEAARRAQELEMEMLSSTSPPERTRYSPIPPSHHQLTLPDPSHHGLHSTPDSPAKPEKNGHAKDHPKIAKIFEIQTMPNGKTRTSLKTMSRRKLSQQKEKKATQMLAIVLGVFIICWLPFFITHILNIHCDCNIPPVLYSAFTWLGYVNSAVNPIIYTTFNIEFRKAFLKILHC

Row | Structure (SMILES) | Ki (D2 receptor) [nM] | D4/D3 [1] | further results
1 | COc1ccc2[nH]c(C(=O)NCCC(O)CN3CCN(c4ccccc4OC)CC3)cc2c1 (centres unmarked) [Compound 30, N-(3-Hydroxy-4-(4-(2-methoxy-phenyl)piperazin-1-yl)butyl)-5-methoxy-1H-indole-2-carboxamide] | > 400 |  | EC50 (dopamine D3 receptor): 13.7 nM
2 | COc1ccccc1N1CCN(CC(O)CCNC(=O)c2cc3cc(F)ccc3[nH]2)CC1 (centres unmarked) [Compound 26, 5-Fluoro-N-(3-hydroxy-4-(4-(2-methoxy-phenyl)piperazin-1-yl)butyl)-1H-indole-2-carboxamide] |  |  | D3 selectivity over D2 receptor mediated mitogenesis (dopamine D3 receptor): ~100 fold
3 | O=C(NCCC(O)CN1CCN(c2cccc(Cl)c2Cl)CC1)c1cc2ccccc2o1 (centres unmarked) [Compound 31, N-(4-(4-(2,3-Dichloro-phenyl)piperazin-1-yl)-3-hydroxybutyl)benzofuran-2-carboxamide] |  | >1600 | 
4 | COc1ccc2[nH]c(C(=O)NCCC(O)CN3CCN(c4cccc(Cl)c4Cl)CC3)cc2c1 (centres unmarked) [Compound 29, N-(4-(4-(2,3-Dichloro-phenyl)piperazin-1-yl)-3-hydroxybutyl)-5-methoxy-1H-indole-2-carboxamide] | > 400 |  | Ki [1]: 1 nM
5 | COc1ccccc1N1CCN(CCCCNC(=O)c2cc3cc(I)ccc3o2)CC1 [Compound 14, 5-Iodo-N-(4-(4-(2-methoxy-phenyl)piperazin-1-yl)butyl)benzofuran-2-carboxamide] |  |  | D3 selectivity over D2 (binding) ([1]; from Ki values): > 100 fold
6 | O=C(NCCC(O)CN1CCN(c2cccc(Cl)c2Cl)CC1)c1cc2cc(I)ccc2o1 (centres unmarked) [Compound 33, N-(4-(4-(2,3-Dichloro-phenyl)piperazin-1-yl)-3-hydroxybutyl)-5-iodobenzofuran-2-carboxamide] |  | >1300 | 

Reference: article PMC2760932 (Journal of medicinal chemistry, 2009)
